According to US20070173462A1, “Treatment of diseases associated with the use of antibiotics” (Optimer Pharmaceuticals, Inc., priority 2004, published 2007):
≈ marks a conversion by molar mass, not a printed value. Like-named read-outs stand apart in the source and are kept apart here.

Key:
Type in all cases: cell-based
[1] = test system: Anaerobic Gram positive cocci; assay: MIC, ATCC laboratory strains (NCCLS guidelines); details: n=4
Experimental: (§1) The activity of Compound I was tested against laboratory strains of different species of bacteria using NCCLS antimicrobial susceptibility testing guidelines. […] Including MRSA and Enterococcus sp. Including VRE (Table. 2).

Bacillus sp. = assay: MIC, ATCC laboratory strains (NCCLS guidelines); details: n=2
Experimental: as §1

Bacteroides sp. = assay: MIC, ATCC laboratory strains (NCCLS guidelines); details: n=5
Experimental: as §1

Citrobacter sp. = assay: MIC, ATCC laboratory strains (NCCLS guidelines); details: n=2
Experimental: as §1

Clostridium sp. = assay: MIC, ATCC laboratory strains (NCCLS guidelines)
Experimental: as §1

Enterobacteriaceae. = assay: MIC, ATCC laboratory strains (NCCLS guidelines); details: n=10
Experimental: as §1

[2] = test system: Enterococcus sp. (incl. VRE); assay: MIC, ATCC laboratory strains (NCCLS guidelines)
Experimental: as §1

Fusobacterium sp. = assay: MIC, ATCC laboratory strains (NCCLS guidelines); details: n=1
Experimental: as §1

Helicobacter sp. = assay: MIC, ATCC laboratory strains (NCCLS guidelines); details: n=1
Experimental: as §1

Micrococcus sp. = assay: MIC, ATCC laboratory strains (NCCLS guidelines)
Experimental: as §1

Moraxella sp. = assay: MIC, ATCC laboratory strains (NCCLS guidelines); details: n=2, in µg/mL
Experimental: as §1

Neisseria sp. = assay: MIC, ATCC laboratory strains (NCCLS guidelines); details: n=3, in µg/mL
Experimental: as §1

[3] = test system: Staphylococcus sp. (incl. MRSA); assay: MIC, ATCC laboratory strains (NCCLS guidelines)
Experimental: as §1

Streptococcus sp. = assay: MIC, ATCC laboratory strains (NCCLS guidelines); details: n=5, in µg/mL
Experimental: as §1

Clostridium difficile = assay: MIC, 207 clinical isolates of C. difficile
Description: Compound I was additionally tested against anaerobic clinical isolates and against aerobic bacteria. […] The compound was also active against clinical strains of Staphylococcus sp. and Enterococcus sp.

C. bolteae = assay: microbe, parasite or virus in culture; details: Enterocloster bolteae; clinical isolates, n=6
C. perfringens = assay: microbe, parasite or virus in culture
Other Clostridium sp. = assay: microbe, parasite or virus in culture; details: Clostridium; clinical isolates, n=11
[4] = test system: Bacteroides fragilis group; assay: microbe, parasite or virus in culture; details: Bacteroides fragilis; clinical gastrointestinal isolates, n=54
[5] = test system: Other anaerobic Gram negative rods; assay: organism not typed; details: clinical gastrointestinal isolates, n=51
[6] = test system: Anaerobic Gram positive cocci; assay: organism not typed; details: clinical gastrointestinal isolates, n=49
Enterobacter sp. = assay: microbe, parasite or virus in culture; details: clinical gastrointestinal isolates, n=20
Klebsiella sp. = assay: microbe, parasite or virus in culture; details: clinical gastrointestinal isolates, n=10
Proteus mirabilis = assay: microbe, parasite or virus in culture; details: clinical gastrointestinal isolates, n=10
Pseudomonas aeruginosa = assay: microbe, parasite or virus in culture; details: clinical gastrointestinal isolates, n=10

SMILES: CCc1c(Cl)c(O)c(Cl)c(O)c1C(=O)O[C@H]1[C@H](O)[C@H](OC)[C@H](OC/C2=C\C=C\C[C@H](O)/C(C)=C/[C@H](CC)C(O[C@@H]3OC(C)(C)[C@@H](OC(=O)C(C)C)[C@H](O)[C@@H]3O)/C(C)=C/C(C)=C/C[C@@H](C(C)O)OC2=O)O[C@@H]1C (some centres unmarked) [Compound I]
- Range (MIC) [1]: ≦0.06-1
- Range (MIC) (Bacillus sp.): 1 µg/mL
- Range (MIC) (Bacteroides sp.): > 32 µg/mL
- Range (MIC) (Citrobacter sp.): > 64 µg/mL
- Range (MIC) (Clostridium sp.; ATCC laboratory strains, n=4): ≦0.015-0.0625
- activity (in words) (Clostridium sp.; laboratory strains): excellent activity
- Range (MIC) (Enterobacteriaceae.): > 32 µg/mL
- Range (MIC) ([2]; ATCC laboratory strains, n=4): 4 µg/mL
- activity (in words) ([2]; laboratory strains, including VRE): moderate activity
- Range (MIC) (Fusobacterium sp.): > 32 µg/mL
- Range (MIC) (Helicobacter sp.): > 32 µg/mL
- Range (MIC) (Micrococcus sp.; ATCC laboratory strains, n=4): ≦0.125
- activity (in words) (Micrococcus sp.; laboratory strains): excellent activity
- Range (MIC) (Moraxella sp.): 1-2
- Range (MIC) (Neisseria sp.): 8-64
- Range (MIC) ([3]; ATCC laboratory strains, n=6, in µg/mL): 1-16
- activity (in words) ([3]; laboratory strains, including MRSA): moderate activity
- Range (MIC) (Streptococcus sp.): 16-32
- MIC90 (Clostridium difficile; Clostridioides difficile, clinical isolates, n=207): 0.008 µg/mL (≈ 0.00756 µM)
- MIC50 (Clostridium difficile; Clostridioides difficile, clinical isolates, n=207, read-out: MIC50): 0.0019 µg/mL (≈ 0.0018 µM)
- MIC50 (Clostridium difficile; clinical isolates, n=207): 0.002 µg/mL (≈ 0.00189 µM)
- sensitivity of isolates (in words) (Clostridium difficile; panel of 207 C. difficile clinical isolates): very sensitive
- MIC50 (C. bolteae): > 1020 µg/mL
- MIC90 (C. bolteae): > 1020 µg/mL
- MIC50 (C. perfringens; Clostridium perfringens): 0.062 µg/mL (≈ 0.0586 µM)
- MIC90 (C. perfringens; Clostridium perfringens): 0.062 µg/mL (≈ 0.0586 µM)
- Range (MIC) (C. perfringens; clinical isolates, n=14): 0.062 µg/mL
- MIC50 (Other Clostridium sp.): 32 µg/mL (≈ 30.2 µM)
- MIC90 (Other Clostridium sp.): 1020 µg/mL (≈ 968 µM)
- MIC50 [4]: 512 µg/mL (≈ 484 µM)
- MIC90 [4]: > 1020 µg/mL
- MIC50 [5]: 1020 µg/mL (≈ 968 µM)
- MIC90 [5]: > 1020 µg/mL
- MIC50 [6]: 0.5 µg/mL (≈ 0.473 µM)
- MIC90 [6]: 2 µg/mL (≈ 1.89 µM)
- Range (MIC) [6]: 0.06 to 1024 µg/mL
- MIC50 (Enterobacter sp.; Enterobacter): > 256 µg/mL
- MIC90 (Enterobacter sp.; Enterobacter): > 256 µg/mL
- Range (MIC) (Enterobacter sp.): >256 µg/mL
- MIC50 (Klebsiella sp.; Klebsiella): > 256 µg/mL
- MIC90 (Klebsiella sp.; Klebsiella): > 256 µg/mL
- Range (MIC) (Klebsiella sp.): >256 µg/mL
- MIC50 (Proteus mirabilis; Proteus mirabilis): > 256 µg/mL
- MIC90 (Proteus mirabilis; Proteus mirabilis): > 256 µg/mL
- Range (MIC) (Proteus mirabilis): >256 µg/mL
- MIC50 (Pseudomonas aeruginosa): > 256 µg/mL
- MIC90 (Pseudomonas aeruginosa): > 256 µg/mL
